Reference: PubChem BioAssay (NCI)
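How tested: cells in 96-well plates exposed to compound for 48 hours at five concentrations. At the TGI there is no net growth.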

Key:
Assay in all cases: NCI anticancer screen, dose series, 48 h
SK-MEL-2 melanoma = tested on: SK-MEL-2 melanoma
786-0 renal = tested on: 786-0 renal
HCT-116 colon = tested on: HCT-116 colon
EKVX NSCLC = tested on: EKVX NSCLC
T-47D breast = tested on: T-47D breast
HOP-62 NSCLC = tested on: HOP-62 NSCLC
HL-60(TB) leukemia = tested on: HL-60(TB) leukemia
SK-OV-3 ovarian = tested on: SK-OV-3 ovarian
MDA-MB-231 breast = tested on: MDA-MB-231 breast
A498 renal = tested on: A498 renal
HT29 colon = tested on: HT29 colon
OVCAR-8 ovarian = tested on: OVCAR-8 ovarian
NCI/ADR-RES ovarian = tested on: NCI/ADR-RES ovarian
NCI-H23 lung = tested on: NCI-H23 lung
NCI-H460 lung = tested on: NCI-H460 lung
SF-539 CNS = tested on: SF-539 CNS
HS 578T breast = tested on: HS 578T breast
KM12 colon = tested on: KM12 colon
DU-145 prostate = tested on: DU-145 prostate

Row | Compound | TGI (SK-MEL-2 melanoma) [µM] | TGI (786-0 renal) [µM] | TGI (HCT-116 colon) [µM] | TGI (EKVX NSCLC) [µM] | TGI (T-47D breast) [µM] | TGI (HOP-62 NSCLC) [µM] | TGI (HL-60(TB) leukemia) [µM] | TGI (SK-OV-3 ovarian) [µM] | TGI (MDA-MB-231 breast) [µM] | TGI (A498 renal) [µM] | TGI (HT29 colon) [µM] | TGI (OVCAR-8 ovarian) [µM] | TGI (NCI/ADR-RES ovarian) [µM] | TGI (NCI-H23 lung) [µM] | TGI (NCI-H460 lung) [µM] | TGI (SF-539 CNS) [µM] | TGI (HS 578T breast) [µM] | TGI (KM12 colon) [µM] | TGI (DU-145 prostate) [µM]
1 | Nc1ncnc2c1ncn2[C@@H]1O[C@H](COP(=O)(O)OP(=O)(O)OC[C@H]2O[C@@H](OCCCO)[C@H](O)[C@@H]2O)[C@@H](O)[C@H]1O | > 100 | > 100 | > 100 | > 100 | > 100 | > 100 | > 100 | > 100 | > 100 | > 100 | > 100 | > 100 | > 100 | > 100 | > 100 | > 100 | > 100 | > 100 | > 100
2 | CN(CCNC(=O)c1nn(-c2ccc(Cl)cc2Cl)c2c1Cc1ccccc1-2)CCNC(=O)c1nn(-c2ccc(Cl)cc2Cl)c2c1Cc1ccccc1-2 | 4.32 | 4.47 | 4.45 | > 100 | > 30.2 | > 45.8 | 3.57 | 97.9 | 8.88 | 12.9 | 5.55 | 4.44 | 14.9 | 30.2 | 4.01 | 3.68 | 32.5 | > 100 | > 61.9
3 | CC1=C[C@H]([C@H]2C=C(C)C(C(N)=O)=CN2Cc2c(Cl)cccc2Cl)N(Cc2c(Cl)cccc2Cl)C=C1C(N)=O | > 75 | > 75 | > 75 | > 75 | > 75 | > 75 | > 75 | > 75 | > 75 | > 75 | > 75 | > 75 | > 75 | > 75 | > 75 | > 75 | > 75 | > 75 | > 75
4 | CC(=O)OC12CC[N+]3(C)CCCCC3C1=Nc1ccccc12 (stereo unspecified) | > 100 | > 100 | > 100 | > 100 | > 100 | > 100 | > 100 | > 100 | > 100 | > 100 | > 100 | > 100 | > 100 | > 100 | > 100 | > 100 | > 100 | > 100 | > 100
